From patent US20260000642A1 (Tay Therapeutics Limited, priority 2022, published 2026)
Values joined by “and” are separate entries in the source; they are usually repeats but may differ in a detail not shown here. Identical values can stand only once.

Tested on: collagen-induced arthritis in Lewis rats
Assay: Collagen-induced arthritis (CIA) model in rats: body weight, paw volume, clinical scores, clinical observations; for Detailed Clinical Scores, left forelimb: key of the grades not given here; for Detailed Clinical Scores, left hind limb: key of the grades not given here; for Detailed Clinical Scores, right forelimb: key of the grades not given here; for Detailed Clinical Scores, right hind limb: key of the grades not given here; for Detailed Clinical Scores, score: key of the grades not given here
Conditions: for Detailed Clinical Scores, left forelimb / Detailed Clinical Scores, left hind limb / Detailed Clinical Scores, right forelimb / Detailed Clinical Scores, right hind limb / Detailed Clinical Scores, score: CIA, per animal ID
[1] = CIA rats, 10 mg/kg, individual animals
[2] = CIA rats, 30 mg/kg, individual animals
[3] = CIA rats, 3 mg/kg twice daily for 21 days
[4] = CIA rats, 30 mg/kg twice daily for 21 days

CNC(=O)c1[nH]c(C(=O)NC2CCC2)cc1O[C@@H](C)c1ccccc1 [Example 101, N^5-cyclobutyl-N^2-methyl-3-(1-phenylethoxy)-1H-pyrrole-2,5-dicarboxamide]
amelioration of clinical symptoms associated with CIA (3 mg/kg, 10 mg/kg and 30 mg/kg twice daily): dose-dependent effect | Clinical Observation Day 15 [1]: Diarrhea | Clinical Observation Day 19 [1]: Diarrhea | Clinical Observation Day 12 [2]: Diarrhea | Clinical Observation Day 13 [2]: Diarrhea | Clinical Observation Day 16 [2]: Diarrhea | Clinical Observation Day 18 [2]: Diarrhea | Clinical Observation Day 19 [2]: Diarrhea | Clinical Observation Day 21 [2]: Diarrhea | diarrhea over the 21-day period (CIA rats, 3 mg/kg twice daily): did not have diarrhea | effect on hind paw volume relative to CIA + vehicle (group 2) [3]: less effective at preventing an increase in paw volume | increase in body weight, day 21 compared to day 0 [3]: 1.7% | animals that gained weight by the end of the study (of 8) (CIA rats, 3 mg/kg twice daily for 21 days (group 5)): 7/8 | animals showing signs of disease (of 8) (CIA rats, 3 mg/kg twice daily, day 12): Three animals | animals showing signs of disease (of 8) (CIA rats, 3 mg/kg twice daily, day 14): all animals | diarrhea over the 21-day period (CIA rats, 10 mg/kg twice daily (group 6)): Two different animals | weight change, day 21 compared to day 0 (CIA rats, 10 mg/kg twice daily for 21 days): approximately 0.5% | animals that gained weight by the end of the study (of 8) (CIA rats, 10 mg/kg twice daily for 21 days (group 6)): 3/8 | effect on hind paw volume relative to CIA + vehicle (group 2) (CIA rats, 10 mg/kg twice daily for 21 days, both paws, p<0.05): significantly decreased relative to group 2 on days 19 and 21 | animals showing signs of disease (of 8) (CIA rats, 10 mg/kg twice daily, day 19): all animals | diarrhea over the 21-day period (CIA rats, 30 mg/kg twice daily (group 7)): Four different animals | effect on hind paw volume relative to CIA + vehicle (group 2) [4]: most effective dose at preventing an increase in paw volume | weight change, day 21 compared to day 0 [4]: approximately 0.5% | animals that gained weight by the end of the study (of 8) (CIA rats, 30 mg/kg twice daily for 21 days (group 7)): 3/8 | animals showing signs of disease (of 8) (CIA rats, 30 mg/kg twice daily, day 12): One animal | hind paw volume increase at plateau relative to day 0 (CIA rats, 30 mg/kg twice daily, increase from around day 19): approximately 35% | Detailed Clinical Scores, left forelimb (Day 0, 3 mg/kg): 0 | Detailed Clinical Scores, left hind limb (Day 0, 3 mg/kg): 0 | Detailed Clinical Scores, right forelimb (Day 0, 3 mg/kg): 0 | Detailed Clinical Scores, right hind limb (Day 0, 3 mg/kg): 0 | Detailed Clinical Scores, score (Day 0, 3 mg/kg): 0 | Detailed Clinical Scores, left forelimb (Day 0, 10 mg/kg): 0 | Detailed Clinical Scores, left hind limb (Day 0, 10 mg/kg): 0 | Detailed Clinical Scores, right forelimb (Day 0, 10 mg/kg): 0 | Detailed Clinical Scores, right hind limb (Day 0, 10 mg/kg): 0 | Detailed Clinical Scores, score (Day 0, 10 mg/kg): 0 | Detailed Clinical Scores, left forelimb (Day 0, 30 mg/kg): 0 | Detailed Clinical Scores, left hind limb (Day 0, 30 mg/kg): 0 | Detailed Clinical Scores, right forelimb (Day 0, 30 mg/kg): 0 | Detailed Clinical Scores, right hind limb (Day 0, 30 mg/kg): 0 | Detailed Clinical Scores, score (Day 0, 30 mg/kg): 0 | Average animal body weight percent change (Day 0, CIA + 3 mg/kg): 0.00% | Mean animal body weight (Day 0, CIA + 3 mg/kg): 165 g | Average animal body weight percent change (Day 0, CIA + 10 mg/kg): 0.00% | Mean animal body weight (Day 0, CIA + 10 mg/kg): 162 g | Average animal body weight percent change (Day 0, CIA + 30 mg/kg): 0.00% | Mean animal body weight (Day 0, CIA + 30 mg/kg): 162 g | Average animal body weight percent change (Day 1, CIA + 3 mg/kg): −0.49% | Mean animal body weight (Day 1, CIA + 3 mg/kg): 164 g | Average animal body weight percent change (Day 1, CIA + 10 mg/kg): −1.45% | Mean animal body weight (Day 1, CIA + 10 mg/kg): 160 g | Average animal body weight percent change (Day 1, CIA + 30 mg/kg): −0.83% | Mean animal body weight (Day 1, CIA + 30 mg/kg): 161 g | Average animal body weight percent change (Day 2, CIA + 3 mg/kg): −0.15% | Mean animal body weight (Day 2, CIA + 3 mg/kg): 165 g | Average animal body weight percent change (Day 2, CIA + 10 mg/kg): −1.29% | Mean animal body weight (Day 2, CIA + 10 mg/kg): 160 g | Average animal body weight percent change (Day 2, CIA + 30 mg/kg): −1.03% | Mean animal body weight (Day 2, CIA + 30 mg/kg): 160 g | Average animal body weight percent change (Day 3, CIA + 3 mg/kg): 1.01% | Mean animal body weight (Day 3, CIA + 3 mg/kg): 167 g | Average animal body weight percent change (Day 3, CIA + 10 mg/kg): 0.91% | Mean animal body weight (Day 3, CIA + 10 mg/kg): 164 g | Average animal body weight percent change (Day 3, CIA + 30 mg/kg): −1.32% | Mean animal body weight (Day 3, CIA + 30 mg/kg): 160 g | Average animal body weight percent change (Day 4, CIA + 3 mg/kg): 0.94% | Mean animal body weight (Day 4, CIA + 3 mg/kg): 166 g | Average animal body weight percent change (Day 4, CIA + 10 mg/kg): 0.99% | Mean animal body weight (Day 4, CIA + 10 mg/kg): 164 g | Average animal body weight percent change (Day 4, CIA + 30 mg/kg): 0.47% | Mean animal body weight (Day 4, CIA + 30 mg/kg): 163 g | Average animal body weight percent change (Day 5, CIA + 3 mg/kg): 1.81% | Mean animal body weight (Day 5, CIA + 3 mg/kg): 168 g | Average animal body weight percent change (Day 5, CIA + 10 mg/kg): 1.43% | Mean animal body weight (Day 5, CIA + 10 mg/kg): 165 g | Average animal body weight percent change (Day 5, CIA + 30 mg/kg): 0.90% | Mean animal body weight (Day 5, CIA + 30 mg/kg): 163 g | Detailed Clinical Scores, left forelimb (Day 6, 3 mg/kg): 0 | Detailed Clinical Scores, right forelimb (Day 6, 3 mg/kg): 0 | Detailed Clinical Scores, right hind limb (Day 6, 3 mg/kg): 0 | Detailed Clinical Scores, left forelimb (Day 6, 10 mg/kg): 0 | Detailed Clinical Scores, left hind limb (Day 6, 10 mg/kg): 0 | Detailed Clinical Scores, right forelimb (Day 6, 10 mg/kg): 0 | Detailed Clinical Scores, right hind limb (Day 6, 10 mg/kg): 0 | Detailed Clinical Scores, score (Day 6, 10 mg/kg): 0 | Detailed Clinical Scores, left forelimb (Day 6, 30 mg/kg): 0 | Detailed Clinical Scores, left hind limb (Day 6, 30 mg/kg): 0 | Detailed Clinical Scores, right forelimb (Day 6, 30 mg/kg): 0 | Detailed Clinical Scores, right hind limb (Day 6, 30 mg/kg): 0 | Detailed Clinical Scores, score (Day 6, 30 mg/kg): 0 | Average animal body weight percent change (Day 6, CIA + 3 mg/kg): 3.40% | Mean animal body weight (Day 6, CIA + 3 mg/kg): 171 g | Average animal body weight percent change (Day 6, CIA + 10 mg/kg): 1.77% | Mean animal body weight (Day 6, CIA + 10 mg/kg): 165 g | Average animal body weight percent change (Day 6, CIA + 30 mg/kg): 0.03% | Mean animal body weight (Day 6, CIA + 30 mg/kg): 162 g | Average animal body weight percent change (Day 7, CIA + 3 mg/kg): 4.80% | Mean animal body weight (Day 7, CIA + 3 mg/kg): 173 g | Average animal body weight percent change (Day 7, CIA + 10 mg/kg): 2.23% | Mean animal body weight (Day 7, CIA + 10 mg/kg): 166 g | Average animal body weight percent change (Day 7, CIA + 30 mg/kg): 0.29% | Mean animal body weight (Day 7, CIA + 30 mg/kg): 162 g | Average animal body weight percent change (Day 8, CIA + 3 mg/kg): 4.69% | Mean animal body weight (Day 8, CIA + 3 mg/kg): 173 g | Average animal body weight percent change (Day 8, CIA + 10 mg/kg): 2.82% | Mean animal body weight (Day 8, CIA + 10 mg/kg): 167 g | Average animal body weight percent change (Day 8, CIA + 30 mg/kg): 1.21% | Mean animal body weight (Day 8, CIA + 30 mg/kg): 164 g | Average animal body weight percent change (Day 9, CIA + 3 mg/kg): 5.59% | Mean animal body weight (Day 9, CIA + 3 mg/kg): 174 g | Average animal body weight percent change (Day 9, CIA + 10 mg/kg): 4.86% | Mean animal body weight (Day 9, CIA + 10 mg/kg): 170 g | Average animal body weight percent change (Day 9, CIA + 30 mg/kg): 2.81% | Mean animal body weight (Day 9, CIA + 30 mg/kg): 166 g | Average animal body weight percent change (Day 10, CIA + 3 mg/kg): 6.84% | Mean animal body weight (Day 10, CIA + 3 mg/kg): 176 g | Average animal body weight percent change (Day 10, CIA + 10 mg/kg): 4.86% | Mean animal body weight (Day 10, CIA + 10 mg/kg): 170 g | Average animal body weight percent change (Day 10, CIA + 30 mg/kg): 2.27% | Mean animal body weight (Day 10, CIA + 30 mg/kg): 166 g | Average animal body weight percent change (Day 11, CIA + 3 mg/kg): 7.79% | Mean animal body weight (Day 11, CIA + 3 mg/kg): 178 g | Average animal body weight percent change (Day 11, CIA + 10 mg/kg): 5.09% | Mean animal body weight (Day 11, CIA + 10 mg/kg): 171 g | Average animal body weight percent change (Day 11, CIA + 30 mg/kg): 2.22% | Mean animal body weight (Day 11, CIA + 30 mg/kg): 165 g | Detailed Clinical Scores, left forelimb (Day 12, 3 mg/kg): 0 | Detailed Clinical Scores, left hind limb (Day 12, 3 mg/kg, 3 mg/kg): 1 | Detailed Clinical Scores, right forelimb (Day 12, 3 mg/kg, 3 mg/kg): 0 (6×) and 1 (2×) | Detailed Clinical Scores, left forelimb (Day 12, 10 mg/kg): 0 | Detailed Clinical Scores, right forelimb (Day 12, 10 mg/kg): 0 | Detailed Clinical Scores, left hind limb (Day 12, 10 mg/kg, 10 mg/kg): 1 (2×) and 0 (2×) | Detailed Clinical Scores, right hind limb (Day 12, 10 mg/kg, 10 mg/kg): 2 and 0 (2×) | Detailed Clinical Scores, score (Day 12, 10 mg/kg, 10 mg/kg): 1 (2×) and 2 and 0 | Detailed Clinical Scores, left forelimb (Day 12, 30 mg/kg): 0 | Detailed Clinical Scores, left hind limb (Day 12, 30 mg/kg): 0 | Detailed Clinical Scores, right forelimb (Day 12, 30 mg/kg): 0 | Detailed Clinical Scores, right hind limb (Day 12, 30 mg/kg, 30 mg/kg): 1 and 0 (5×) | Detailed Clinical Scores, score (Day 12, 30 mg/kg, 30 mg/kg): 1 and 0 (4×) | Average animal body weight percent change (Day 12, CIA + 3 mg/kg): 8.18% | Mean animal body weight (Day 12, CIA + 3 mg/kg): 178 g | Average animal body weight percent change (Day 12, CIA + 10 mg/kg): 4.18% | Mean animal body weight (Day 12, CIA + 10 mg/kg): 169 g
